Like-named read-outs stand apart in the source and are kept apart here.
Legend:
HCT-116 cells [1] = assay: Measurement of reactive oxygen species (DCFH-DA); type: cell-based, human; conditions: HCT-116, 40 μM, after two hours
Description: The assay employed the cell-permeable fluorogenic probe 2′,7′-dichlorodihydrofluorescin diacetate [DCFH-DA] (Sigma Aldrich, St. […] In brief, DCFH-DA is diffused into cells and is deacetylated by cellular esterases to non-fluorescent 2′,7′-dichlorodihydrofluorescin (DCFH), which is rapidly oxidized to highly fluorescent 2′,7′-dichlorodihydrofluorescein (DCF) by intracellular hydrogen peroxide, or other low molecular weight peroxides. Measured fluorescence intensity is thus proportional to the amount of such peroxides in the cell at a given time. Human colon cancer cells HCT-116 or HT-29 were seeded in 96-well black-sided, clear-bottomed culture plates, with 5000 cells/well and were allowed to adhere for 24 hours in a 37° C. incubator with 5% CO2. […] After desired incubation times of 0, 2, 4, 8, or 24 hours, media and test compounds were aspirated. Cells were washed three times with 200 μL PBS before addition of 100 μL 1 mM DCF-DA. The fluorogenic probe permeated cell membranes and was processed to DCF for one hour at 37° C. After incubation, plates were immediately placed in a Biotek microplate reader to measure fluorescence at wavelengths of 485 (excitation) and 528 (emission). Raw values were normalized to DMSO control for each time point and are presented as fold induction versus 0 hour time point (n=3).

H-1299 cells = assay: TUNEL apoptosis assay (Part 1); type: cell-based, human; conditions: 24 h
Protocol: (§1) HCT-116 and H-1299 cells were seeded in six-well plates at 1.0×10^5 cells/well and were incubated at 37° C. in a 5% CO2 incubator. After 24 h, fresh media supplemented with DMSO (control), [6]-shogaol (10 or 20 μM), M9 (40 or 80 μM), or M11 (40 or 80 μM) were added to the wells. After 24-h incubation, cells were washed and pretreated for 15 min at room temperature with a solution of 20 μg/ml proteinase K. Cells were then washed twice with PBS pH 7.4 and were fixed for 10 min at room temperature using 10% neutral formaldehyde solution. After two washes in distilled H2O, cells were resuspended in 100 μl of distilled H2O and were applied on silanized microscope slides. Slides were incubated overnight at 37° C. and were washed twice with PBS. Terminal deoxynucleotidyl transferase deoxyuridine triphosphate nick-end labeling (TUNEL) assay was then performed according to the manufacturer's protocol. Cells were observed under 400× power using a Zeiss A1 microscope (Carl Zeiss, Inc., Thornwood, N.Y.).
(§2) Ten fields per slide were evaluated, and TUNEL-positive cells (with brown coloration in the nucleus) were expressed as a percentage of the total number of cells contained in a field. Statistical Analysis. For simple comparisons between two groups, twotailed Student's t test was used. A p value of less than 0.05 was considered statistically significant in all the tests.

HCT-116 cells [2] = assay: TUNEL apoptosis assay (Part 1); type: cell-based, human; conditions: 24 h
Protocol: as §1, §2

[3] = Kinetic study of [6]-shogaol metabolism to M6 in liver microsomes; type: in vitro ADME, mouse; conditions: mouse liver microsomes 0.1 mg/mL, 30 min; read-out: Km of M6 formation
Protocol: (§3) All incubations were performed in triplicate.

[4] = system: H-1299 human lung cancer cells; assay: MTT growth inhibition of human cancer cells, 24 h (Part 1); type: cell-based; conditions: H-1299, 24 h, 0 to 80 μM
Protocol: (§4) The reading reflected the number of viable cells and was expressed as a percentage of viable cells in the control. Both HCT-116 and H-1299 cells were cultured in McCoy's 5A medium. All of the above media were supplemented with 10% fetal bovine serum, 1% penicillin/streptomycin, and 1% glutamine, and the cells were kept in a 37° C. incubator with 95% humidity and 5% CO2.

[5] = system: HCT-116 human colon cancer cells; assay: as above; type: cell-based; conditions: HCT-116, 24 h, 0 to 80 μM
Protocol: as §4

[6] = Kinetic study of [6]-shogaol metabolism to M6 in liver microsomes; type: in vitro ADME, rat; conditions: rat liver microsomes 0.1 mg/mL, 30 min
Protocol: as §3

[7] = as above; type: in vitro ADME, monkey; conditions: monkey liver microsomes 0.1 mg/mL, 30 min
Protocol: as §3

[8] = system: human colon cancer cells HCT-116; assay: Cell Death Detection ELISA apoptosis induction (Part 3); type: cell-based; conditions: HCT-116, 10 μM, 24 hours
Protocol: (§5) Human colon cancer cells HCT-116 and human lung cancer cells H-1299 were plated in 96-well plates at a density of 5000 cells/well and allowed to attach overnight at 37° C. M14, M15, or [6]-shogaol in DMSO, or DMSO control, diluted in media, were added to cells and incubated for an additional 24 hours at 37° C. After 24 hours, media containing compound was removed and cells were lysed in their respective wells with reagents from a Cell Death Detection ELISA^PLUS kit from Roche Applied Science (Mannheim, Germany). Samples were harvested after cell lysates were spun down at 300 g for 10 minutes. To streptavidin coated microplates, 20 μL samples were added, and mixed with 80 μL Immunoreagent, which consisted of anti-histone-biotin, and anti-DNA-POD, and incubated with gentle shaking for 2 hours at room temperature. After incubation, Immunoreagent was removed and samples were washed 3 times with 250 μL incubation buffer. Substrate solution, ABTS, was added to each well and color was developed for 15 minutes before stopping the reaction with ABTS stop solution and reading absorbance on a microplate reader at 430 nm. Experiments were performed in triplicate and the average is given in comparison to DMSO control with standard deviation.

[9] = system: human lung cancer cells H-1299; assay: as above; type: cell-based; conditions: H-1299, 10 μM, 24 hours
Protocol: as §5

Structure (SMILES)	ROS induction (HCT-116 cells [1])	apoptotic cells (TUNEL) (H-1299 cells; H-1299, 10 μM) [%]	apoptotic cells (TUNEL) (H-1299 cells; H-1299, 20 μM) [%]	apoptotic cells (TUNEL) (HCT-116 cells [2]; HCT-116, 10 μM) [%]	apoptotic cells (TUNEL) (HCT-116 cells [2]; HCT-116, 20 μM) [%]	Km [3] [µM]	IC50 [4] [µM]	IC50 [5] [µM]	Vmax of M6 formation [6]	Vmax of M6 formation [7]	Km ([7]; read-out: Km of M6 formation) [µM]	induction of apoptosis compared to DMSO control [8] [fold]	induction of apoptosis compared to DMSO control [9] [fold]
CCCCCC(CC(=O)CCc1ccc(O)c(OC)c1)SC[C@H](N)C(=O)O (stereo partly shown) [M2, 5-cysteinyl-[6]-shogaol]	greater than 2 fold	–	–	–	–	–	–	–	–	–	–	–	–
CCCCC/C=C/C(=O)CCc1ccc(O)c(OC)c1 [[6]-shogaol, reference compound]	–	5.2	31.6	10.3	31.2	75.7	16.9	18.7	8.19+/−0.48 nanomoles per minute per milli	2.99+/−0.28 nanomoles per minute per milli	424	1	~2
